Measured values reported in patent publication US9957271B2, “Substituted bicyclic aza-heterocycles and analogues as sirtuin modulators” (GlaxoSmithKline, LLC, priority 2012, dated 2018).
Read-outs that look alike come from different tables or passages of the source.

Target: T1, SIRT1 (Homo sapiens, UniProt Q96EB6)
T1 sequence (Q96EB6 1-747): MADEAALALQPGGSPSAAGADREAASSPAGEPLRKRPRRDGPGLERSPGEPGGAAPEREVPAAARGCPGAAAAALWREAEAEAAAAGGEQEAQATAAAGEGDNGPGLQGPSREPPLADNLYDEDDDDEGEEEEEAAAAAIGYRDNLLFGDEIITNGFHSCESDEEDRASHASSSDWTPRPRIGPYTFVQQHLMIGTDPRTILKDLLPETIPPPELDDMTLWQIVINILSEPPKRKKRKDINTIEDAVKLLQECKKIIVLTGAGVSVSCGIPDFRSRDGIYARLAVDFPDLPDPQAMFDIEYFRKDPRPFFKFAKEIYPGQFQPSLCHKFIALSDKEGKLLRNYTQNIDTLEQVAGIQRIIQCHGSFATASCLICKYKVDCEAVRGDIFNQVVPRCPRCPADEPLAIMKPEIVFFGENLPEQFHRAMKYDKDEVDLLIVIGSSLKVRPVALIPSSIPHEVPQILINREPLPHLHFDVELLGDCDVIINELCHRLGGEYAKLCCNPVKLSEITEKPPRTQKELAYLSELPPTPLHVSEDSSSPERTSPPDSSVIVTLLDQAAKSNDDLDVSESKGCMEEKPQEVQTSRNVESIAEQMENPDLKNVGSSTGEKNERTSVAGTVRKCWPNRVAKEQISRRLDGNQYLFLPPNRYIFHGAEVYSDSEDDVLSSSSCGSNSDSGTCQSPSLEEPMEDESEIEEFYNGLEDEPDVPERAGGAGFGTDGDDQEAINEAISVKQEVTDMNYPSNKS
Experiment: Trp mass spectrometry assay of SIRT1 activity
Assay type: biochemical
Conditions: for Emax: read-out: Trp % Fold Act; for Trp EC1.5 (μM): concentration giving 150% activation of SIRT1
From the text: Mass spectrometry based assays were used to identify modulators of SIRT1 activity. The TAMRA based assay utilized a peptide having 20 amino acid residues as follows: Ac-EE-K(biotin)-[…](Ac)NleSTEG-K(5TMR)-EE-NH2 (SEQ ID NO: 1), wherein K(Ac) is an acetylated lysine residue and Nle is a norleucine. The peptide was labeled with the fluorophore 5TMR (excitation 540 nm/emission 580 nm) at the C-terminus. The sequence of the peptide substrate was based on p53 with several modifications. In addition, the methionine residue naturally present in the sequence was replaced with the norleucine because the methionine may be susceptible to oxidation during synthesis and purification. The Trp based assay utilized a peptide having an amino acid residues as follows: Ac-R-H-K-K(Ac)-W-NH2 (SEQ ID NO: 2).
The Trp mass spectrometry assay was conducted as follows. 0.5 μM peptide substrate and 120 μM βNAD^+ were incubated with 10 nM SIRT1 for 25 minutes at 25° C. in a reaction buffer (50 mM HEPES pH 7.5, […], 1 mM DTT, 0.05% BSA). The SIRT1 protein was obtained by cloning the SirT1 gene into a T7-promoter containing vector, which was then expressed in BL21(DE3) bacterial cells and purified as described in further detail below. Test compound was added at varying concentrations to this reaction mixture and the resulting reactions were monitored. After the 25 minute incubation with SIRT1, 10 μL of 10% formic acid was added to stop the reaction. The resulting reactions were sealed and frozen for later mass spec analysis. The relative SIRT1 activity was then determined by measuring the amount of O-acetyl-ADP-ribose (OAADPR) formed (or, alternatively, the amount of deacetylated Trp peptide generated) by the NAD-dependent sirtuin deacetylation reaction in the presence of varying concentrations of the test compound versus control reactions lacking the test compound. The degree to which the test agent activated deacetylation by SIRT1 was expressed as EC1.5 (i.e., the concentration of compound required to increase SIRT1 activity by 50% over the control lacking test compound), and Percent Maximum Activation (i.e., the maximum activity relative to control (100%) obtained for the test compound).
A control for inhibition of sirtuin activity was conducted by adding 1 μL of 500 mM nicotinamide as a negative control at the start of the reaction (e.g., permits determination of maximum sirtuin inhibition). A control for activation of sirtuin activity was conducted using 10 nM of sirtuin protein, with 1 μL of DMSO in place of compound, to determine the amount of deacetylation of the substrate at a given time point within the linear range of the assay. This time point was the same as that used for test compounds and, within the linear range, the endpoint represents a change in velocity.
For the above assay, SIRT1 protein was expressed and purified as follows. The SirT1 gene was cloned into a T7-promoter containing vector and transformed into BL21(DE3). The protein was expressed by induction with 1 mM IPTG as an N-terminal His-tag fusion protein at 18° C. overnight and harvested at 30,000×g. Cells were lysed with lysozyme in lysis buffer (50 mM Tris-HCl, 2 mM Tris[2-carboxyethyl]phosphine (TCEP), 10 μM ZnCl2, 200 mM NaCl) and further treated with sonication for […] for complete lysis. The protein was purified over a Ni-NTA column (Amersham) and fractions containing pure protein were pooled, concentrated and run over a sizing column (Sephadex S200 26/60 global). The peak containing soluble protein was collected and run on an Ion-exchange column (MonoQ). Gradient elution (200 mM-500 mM NaCl) yielded pure protein. This protein was concentrated and dialyzed against dialysis buffer (20 mM Tris-HCl, 2 mM TCEP) overnight. The protein was aliquoted and frozen at −80° C. until further use.

[1] = percent maximum fold activation of SIRT1, Trp peptide substrate
[2] = Trp assay, percent maximum fold activation

Row | SMILES | Emax [1] [%] | Trp EC1.5 (μM) (Trp assay) | Emax [2] [%]
1 | O=C(Nc1cc(-c2cnco2)ccn1)c1cnc2ccc(N3CCCC3C(F)(F)F)nn12 (centres unmarked) [Compound 1098] | ≥ 350 |  | 
2 | C[C@H]1CCCN1c1ccc2ncc(C(=O)Nc3cccnn3)n2n1 [Compound 1055] | ≥ 350 |  | 
3 | O=C(Nc1ccccn1)c1cnc2ccc(N3CC(F)(F)C3)nn12 [Compound 912] |  | B (EC1.5 1-25 μM) | < 350
4 | Cc1nn2ccc(N3CCC[C@H]3C(F)(F)F)nc2c1C(=O)Nc1cnccn1 [Compound 1046] | ≥ 350 |  | 
5 | Cc1nc2ccc(N3CC[C@H](N(C)C)C3)nn2c1C(=O)Nc1ccncc1F [Compound 870] |  | C (EC1.5>25 μM) | < 350
6 | Cc1nn2ccc(N3CCC[C@@H]3C(F)(F)F)nc2c1C(=O)Nc1cccnc1 [Compound 1071] | ≥ 350 |  | 
7 | O=C(Nc1ccccn1)c1cnc2ccc(N3CCC[C@H](F)C3)nn12 [Compound 986] |  |  | ≥ 350
8 | O=C(Nc1cccnc1)c1cnn2ccc(N3CCC(C(F)(F)F)CC3)nc12 [Compound 1066] | ≥ 350 |  | 
9 | C[C@@H]1CN(c2ccc3ncc(C(=O)Nc4cccnc4)n3n2)CCO1 [Compound 1002] | ≥ 350 |  | 
10 | O=C(Nc1ccncn1)c1cnc2ccc(N3CCCC3C(F)(F)F)nn12 (centres unmarked) [Compound 970, N-(pyrimidin-4-yl)-6-(2-(trifluoromethyl)pyrrolidin-1-yl)imidazo[1,2-b]pyridazine-3-carboxamide] |  |  | ≥ 350
11 | Cc1nc(NC(=O)c2cnn3ccc(N4CCC[C@H]4C(F)(F)F)nc23)sc1C [Compound 1032, (S)-N-(4,5-dimethylthiazol-2-yl)-5-(2-(trifluoromethyl)pyrrolidin-1-yl)pyrazolo[1,5-a]pyrimidine-3-carboxamide] | ≥ 350 |  | 
12 | Cc1nn2ccc(N3CCC[C@H]3C(F)(F)F)nc2c1C(=O)Nc1cccnc1 [Compound 1047] | ≥ 350 |  | 
13 | O=C(Nc1cccnn1)c1cnc2ccc(N3CCCC(C(F)(F)F)C3)nn12 (centres unmarked) [Compound 902] |  | A (EC1.5<1 μM) | ≥ 350
14 | CC1CCN(c2ccc3ncc(C(=O)Nc4ccccn4)n3n2)C1 (centres unmarked) [Compound 975] |  |  | < 350
15 | Cc1nc2ccc(N3CCC[C@H]3C(F)(F)F)nn2c1C(=O)Nc1cncc(F)c1 [Compound 1017] | ≥ 350 |  | 
16 | O=C(Nc1ccccn1)c1cnn2ccc(N3CCC[C@H]3C(F)(F)F)nc12 [Compound 1029] | ≥ 350 |  | 
17 | O=C(Nc1cncc(F)c1)c1cnn2ccc(N3CCC(C(F)(F)F)CC3)nc12 [Compound 1067] | ≥ 350 |  | 
18 | Cc1nc2ccc(N3CC[C@H](F)C3)nn2c1C(=O)Nc1ccccn1 [Compound 840] |  | B (EC1.5 1-25 μM) | ≥ 350
19 | O=C(Nc1cncc(F)c1)c1cnn2ccc(N3CCC[C@H]3C(F)(F)F)nc12 [Compound 1028] | ≥ 350 |  | 
20 | C[C@@H]1CN(c2ccc3ncc(C(=O)Nc4cncc(F)c4)n3n2)C[C@H](C)O1 [Compound 997] |  |  | ≥ 350
21 | O=C(Nc1cncc(F)c1)c1cnc2ccc(N3CCC(C(F)(F)F)C3)nn12 (centres unmarked) [Compound 959] |  |  | ≥ 350
22 | Cc1nc2ccc(N3CCC[C@H]3C(F)(F)F)nn2c1C(=O)Nc1ccccn1 [Compound 1015] | ≥ 350 |  | 
23 | O=C(Nc1cccnn1)c1cnc2ccc(N3CCC(F)(F)C3)nn12 [Compound 904] |  | B (EC1.5 1-25 μM) | ≥ 350
24 | O=C(Nc1ccccn1)c1cnn2ccc(N3CCCC(C(F)(F)F)C3)nc12 (centres unmarked) [Compound 1008] | ≥ 350 |  | 

Row | SMILES | Emax [1] [%] | Trp EC1.5 (μM) (Trp assay) | Emax [2] [%]
25 | Cc1nc(NC(=O)c2cnn3ccc(N4CCCCC4C(F)(F)F)nc23)sc1C (centres unmarked) [Compound 965] |  |  | ≥ 350
26 | O=C(Nc1nc2c(s1)CCCC2)c1cnc2ccc(N3CCCC3C(F)(F)F)nn12 (centres unmarked) [Compound 1096] | ≥ 350 |  | 
27 | COc1nccc(NC(=O)c2cnn3ccc(N4CCC(C(F)(F)F)CC4)nc23)n1 [Compound 1064] | ≥ 350 |  | 
28 | O=C(Nc1ccncc1F)c1cnc2ccc(N3CCCC(C(F)(F)F)C3)nn12 (centres unmarked) [Compound 931] |  | A (EC1.5<1 μM) | ≥ 350
29 | CN(C)[C@H]1CCN(c2ccc3ncc(C(=O)Nc4ccncc4F)n3n2)C1 [Compound 869] |  | B (EC1.5 1-25 μM) | < 350
30 | Cc1ccc(NC(=O)c2cnc3ccc(N4CC[C@H](F)C4)nn23)cn1 [Compound 920] |  | B (EC1.5 1-25 μM) | < 350
31 | Cn1cc2ccc(NC(=O)c3cnc4ccc(N5CCC[C@@H]5C(F)(F)F)nn34)cc2n1 [Compound 1020] | ≥ 350 |  | 
32 | Cc1nc2c(OC[C@H](O)CO)cc(-c3ccccc3C(F)(F)F)nn2c1C(=O)Nc1ccc(F)cn1 [Compound 835] |  | A (EC1.5<1 μM) | ≥ 350
33 | CC1CCN(c2ccc3ncc(C(=O)Nc4ccncn4)n3n2)C1 (centres unmarked) [Compound 992] |  |  | < 350
34 | CC1CCN(c2ccc3ncc(C(=O)Nc4cncc(F)c4)n3n2)C1 (centres unmarked) [Compound 979] |  |  | ≥ 350
35 | O=C(Nc1cccnn1)c1cnc2ccc(N3CC[C@H](O)C3)nn12 [Compound 984] |  |  | < 350
36 | CC1CCCN1c1ccn2ncc(C(=O)Nc3cncc(F)c3)c2n1 (centres unmarked) [Compound 1039] | ≥ 350 |  | 
37 | CN(C)[C@H]1CCN(c2ccc3ncc(C(=O)Nc4ncccn4)n3n2)C1 [Compound 886] |  | B (EC1.5 1-25 μM) | < 350
38 | CN1CCN(c2ccc3ncc(C(=O)Nc4ccc(F)cn4)n3n2)CC1 [Compound 947] |  |  | < 350
39 | C[C@@H]1CN(c2ccc3ncc(C(=O)Nc4cccnn4)n3n2)C[C@H](C)O1 [Compound 996] |  |  | ≥ 350
40 | CC1(C)CCN(c2ccc3ncc(C(=O)Nc4cccnn4)n3n2)C1 [Compound 955] |  |  | ≥ 350
41 | COc1nccc(NC(=O)c2cnn3ccc(N4CCC[C@@H]4C(F)(F)F)nc23)n1 [Compound 1080] | ≥ 350 |  | 
42 | O=C(Nc1ccncn1)c1cnn2ccc(N3CCC[C@H]3C(F)(F)F)nc12 [Compound 1025] | ≥ 350 |  | 
43 | O=C(Nc1ccncn1)c1cnn2ccc(N3CCC(C(F)(F)F)CC3)nc12 [Compound 1063] | ≥ 350 |  | 
44 | O=C(Nc1ccncc1F)c1cnc2ccc(N3CC[C@H](F)C3)nn12 [Compound 839] |  | B (EC1.5 1-25 μM) | < 350
45 | COc1nccc(NC(=O)c2cnn3ccc(N4CCC[C@H]4C(F)(F)F)nc23)n1 [Compound 1024] | ≥ 350 |  | 
46 | O=C(Nc1cccnc1)c1cnc2ccc(N3CCC[C@H](F)C3)nn12 [Compound 987] |  |  | ≥ 350
47 | O=C(Nc1cccc(-c2cnco2)n1)c1cnc2ccc(N3CCCC3C(F)(F)F)nn12 (centres unmarked) [Compound 1099] | ≥ 350 |  | 
48 | Cc1nc(NC(=O)c2cnn3ccc(N4CCCC4C)nc23)sc1C (centres unmarked) [Compound 1038] | < 350 |  | 
